# Reference: patent publication US6727066B2, “Genes expressed in treated human C3A liver cell cultures” (Incyte Corporation, priority 2000, dated 2004)
# Test system: human C3A liver cell cultures
# Experiment: Microarray differential expression of cDNAs in treated human C3A liver cell cultures
# Type: cell-based
# Conditions: change vs untreated C3A cells
# Excerpt: Incyte clones represent template sequences derived from the LIFESEQ GOLD assembled human sequence database (Incyte Genomics). In cases where more than one clone was available for a particular template, the 5′-most clone in the template was used on the microarray. The GENEALBUM GEM series 1-6 microarrays (Incyte Genomics) contain 52,616 array elements which represent 17,472 annotated clusters and 35,144 unannotated clusters. The HUMAN GENOME GEM series 1-3 microarrays (Incyte Genomics) contain 28,626 array elements which represent 10,068 annotated clusters and 18,558 unannotated clusters. For the UNIGEM series microarrays (Incyte Genomics), Incyte clones were mapped to non-redundant Unigene clusters (Unigene database (build 46), NCBI; Shuler (1997) J Mol Med 75:694-698), and the 5′ clone with the strongest BLAST alignment (at least 90% identity and 100 bp overlap) was chosen, verified, and used in the construction of the microarray. The UNIGEM V microarray (Incyte Genomics) contains 7075 array elements which represent 4610 annotated genes and 2,184 unannotated clusters.
# To construct microarrays, cDNAs were amplified from bacterial cells using primers complementary to vector sequences flanking the cDNA insert. […] Amplified cDNAs were then purified using […]-400 columns (APB). Purified cDNAs were immobilized on polymer-coated glass slides. Glass microscope slides (Corning, Corning N.Y.) were cleaned by ultrasound in 0.1% SDS and acetone, with extensive distilled water washes between and after treatments. Glass slides were etched in 4% hydrofluoric acid (VWR Scientific Products, West Chester Pa.), washed thoroughly in distilled water, and coated with 0.05% aminopropyl silane (Sigma Aldrich) in 95% ethanol. Coated slides were cured in a 110° C. oven. cDNAs were applied to the coated glass substrate using a procedure described in U.S. Pat. No. 5,807,522. One microliter of the cDNA at an average concentration of 100 ng/ul was loaded into the open capillary printing element by a high-speed robotic apparatus which then deposited about 5 nl of cDNA per slide.
# Microarrays were UV-crosslinked using a […] UV-crosslinker (Stratagene), and then washed at room temperature once in 0.2% SDS and three times in distilled water. Non-specific binding sites were blocked by incubation of microarrays in 0.2% casein in phosphate buffered saline (Tropix, Bedford Mass.) for 30 minutes at 60° C. followed by washes in 0.2% SDS and distilled water as before.
# Early confluent C3A cells (ATTC, Manassas Va.) were treated with captopril (0.5, 2, 48, and 60 μg/ml) for 1, 3, and 6 hours. Early confluent C3A cells were treated with enalapril (0.5, 2, 48, and 60 μg/ml) for 1, 3, and 6 hours. Early confluent C3A cells were treated with LY294002 (0.5, 2, 15, and 25 μg/ml) for 1, 3, and 6 hours. Early confluent C3A cells were starved of insulin for 3 days prior to treatment, then treated with LY294002 (10 μM) for 2, 24, 36, and 72 hours in the presence of insulin. Early confluent C3A cells were treated with DES (1, 10, and 100 μM) for 1, 3, and 6 hours. Early confluent C3A cells were treated with dexamethasone (1 and 20 μM) for 0, 2, 6, and 24 hours. Early confluent C3A cells were treated with MCA (0.5 and 10 μM) for 2, 6, and 24 hours. In all cases mRNA from untreated early confluent cells were prepared in parallel as described below.
# Cells were harvested and lysed in 1 ml of TRIZOL reagent (5×10^6 cells/ml; Life Technologies). The lysates were vortexed thoroughly and incubated at room temperature for 2-3 minutes and extracted with 0.5 ml chloroform. The extract was mixed, incubated at room temperature for 5 minutes, and centrifuged at 15,000 rpm for 15 minutes at 4° C. The aqueous layer was collected and an equal volume of isopropanol was added.
smiles,measurement,value
"Cc1ccc2cc3c(ccc4ccccc43)c3c2c1CC3 [MCA, 3-methylcholanthrene]",expression level of cDNA clone 72713,3
same,expression level of cDNA clone 85606,2.96
same,expression level of cDNA clone 118501,4.54
same,expression level of cDNA clone 121785,3.3
same,expression level of cDNA clone 136073,3.1
same,expression level of cDNA clone 279898,5.48
same,expression level of cDNA clone 311346,4.59
same,expression level of cDNA clone 318486,4.11
same,expression level of cDNA clone 408886,4.93
same,expression level of cDNA clone 450856,2.89
same,expression level of cDNA clone 452321,4.3
same,expression level of cDNA clone 454839,3.4
same,expression level of cDNA clone 462069,2.41
same,expression level of cDNA clone 481402,3.22
same,expression level of cDNA clone 510056,5.65
same,expression level of cDNA clone 511448,3.05
same,expression level of cDNA clone 560115,−2.61
same,expression level of cDNA clone 604019,3.28
same,expression level of cDNA clone 630625,2.25
same,expression level of cDNA clone 669498,−2.97
same,expression level of cDNA clone 701484,2.51
same,expression level of cDNA clone 872017,2.85
same,expression level of cDNA clone 1308112,2.28
same,expression level of cDNA clone 1316801,3.38
same,expression level of cDNA clone 1379063,−3.63
same,expression level of cDNA clone 1381654,2.64
same,expression level of cDNA clone 1457424,2.93
same,expression level of cDNA clone 1522880,2.74
same,expression level of cDNA clone 1560906,3.13
same,expression level of cDNA clone 1616783,2.63
same,expression level of cDNA clone 1619292,−2.8
same,expression level of cDNA clone 1623214,−3.12
same,expression level of cDNA clone 1630990,3.34
same,expression level of cDNA clone 1696224,4.4
same,expression level of cDNA clone 1756875,2.99
same,expression level of cDNA clone 1786554,2.67
same,expression level of cDNA clone 1833362,−2.33
same,expression level of cDNA clone 1890576,−3.07
same,expression level of cDNA clone 1930235,2.93
same,expression level of cDNA clone 1975268,−2.51
same,expression level of cDNA clone 1998269,2.46
same,expression level of cDNA clone 2055867,−2.67
same,expression level of cDNA clone 2120743,2.97
same,expression level of cDNA clone 2123516,3.83
same,expression level of cDNA clone 2195427,2.32
same,expression level of cDNA clone 2232658,2.25
same,expression level of cDNA clone 2252107,2.44
same,expression level of cDNA clone 2293496,−2.88
same,expression level of cDNA clone 2343348,2.89
same,expression level of cDNA clone 2511277,3.07
same,expression level of cDNA clone 2513883,3.67
same,expression level of cDNA clone 2520894,3.21
same,expression level of cDNA clone 2579218,2.42
same,expression level of cDNA clone 2660756,2.25
same,expression level of cDNA clone 2675232,3.09
same,expression level of cDNA clone 2695371,2.68
same,expression level of cDNA clone 2708055,2.45
same,expression level of cDNA clone 2756333,2.66
same,expression level of cDNA clone 2757583,4.31
same,expression level of cDNA clone 2765271,2.25
same,expression level of cDNA clone 2822027,2.96
same,expression level of cDNA clone 2825358,2.44
same,expression level of cDNA clone 2831490,2.48
same,expression level of cDNA clone 2860918,−3.2
same,expression level of cDNA clone 2884613,2.2
same,expression level of cDNA clone 2891601,2.56
same,expression level of cDNA clone 2912637,−4.29
same,expression level of cDNA clone 2921991,−3.43
same,expression level of cDNA clone 2955163,3.24
same,expression level of cDNA clone 2956444,3.04
same,expression level of cDNA clone 3074113,3.03
same,expression level of cDNA clone 3108506,3.02
same,expression level of cDNA clone 3158828,2.67
same,expression level of cDNA clone 3222802,3.23
same,expression level of cDNA clone 3225977,2.59
same,expression level of cDNA clone 3381870,2.3
same,expression level of cDNA clone 3407653,2.7
same,expression level of cDNA clone 3472927,2.77
same,expression level of cDNA clone 3493381,2.62
same,expression level of cDNA clone 3606046,3.24
same,expression level of cDNA clone 3792988,3.23
same,expression level of cDNA clone 4019706,3.55
same,expression level of cDNA clone 4070979,2.44
same,expression level of cDNA clone 4091186,2.64
same,expression level of cDNA clone 4092112,3.55
same,expression level of cDNA clone 4203937,7.13
same,expression level of cDNA clone 4246966,3.03
same,expression level of cDNA clone 4254855,2.3
same,expression level of cDNA clone 4284384,2.73
same,expression level of cDNA clone 4287327,−2.54
same,expression level of cDNA clone 4403805,2.4
same,expression level of cDNA clone 4508879,2.68
same,expression level of cDNA clone 4549259,2.53
same,expression level of cDNA clone 4721130,3.57
same,expression level of cDNA clone 5093071,2.36
same,expression level of cDNA clone 5102731,2.33
same,expression level of cDNA clone 5266015,2.47
same,expression level of cDNA clone 5266376,2.54
same,expression level of cDNA clone 5512044,2.26
